Measured values published in ChEMBL document CHEMBL3779895, “Antimycobacterial activity of rhodamine 3,4-HPO iron chelators against Mycobacterium avium: analysis of the contribution of functional groups and of chelator's combination with ethambutol” (Medchemcomm, 2015).
Active and inactive are the calls of the source. The rule behind the calls is not given here.

Experiments:
Mycobacterium avium [1] = assay: Antimycobacterial activity against Mycobacterium avium 2447 Smt infected in BALB/c mice BMDM assessed as bacterial growth inhibition at 10 uM after 5 days; assay type: functional, organism-based
Mycobacterium avium [2] = assay: Antimycobacterial activity against Mycobacterium avium 2447 Smt infected in BALB/c mice BMDM assessed as bacterial growth inhibition upto 20 uM after 5 days; assay type: functional, organism-based

Cc1cc(O)c(O)c(CNC(=O)CCC(CCC(=O)NCc2c(O)c(O)cc(C)[n+]2C)(CCC(=O)NCc2c(O)c(O)cc(C)[n+]2C)NC(=O)CCNC(=S)Nc2ccc(C(=O)O)c(-c3c4ccc(=[N+](C)C)cc-4oc4cc(N(C)C)ccc34)c2)[n+]1C
inhibition (Mycobacterium avium [1]): Active | inhibition (Mycobacterium avium [2]): Active
